“Also recorded” adds a separate entry of the source.
Tests used:
[1] = test system: HIV reverse transcription; assay: Quantitative real-time PCR of reverse transcripts in acutely infected cells; type: cell-based, HIV-1; details: 75 μM inhibitor, QPCR
Protocol: Quantitative real-time PCR of reverse transcripts, detection of transduction in newly infected cells, and effect of compounds on established provirus expression in stably infected cells: 10,000 Ghost-R5 cells were plated in 96 well dishes, treated with compound in a total volume of 75 μL, and incubated at 37° C. for 1 hour. Virus was then added in an additional volume of 25 μL. The final infectious volume was 100 μL, the final DMSO concentration was 1%, and the final compound concentration was as indicated. DNA was harvested using the DNeasy kit (Qiagen) 24 hours after infection in the constant presence of inhibitory compounds. Late DNA products of HIV reverse transcription were quantitated using the primers MH531 and MH532, and the probe LTR-P, as described in Burke, T. R. et al., J Med Chem 38:4171-8, 1995, herein incorporated by reference in its entirety.

[2] = test system: luciferase expression from proviral DNA; assay: Established provirus luciferase expression in stably infected Ghost-R5 cells; type: cell-based, HIV-1; details: 75 μM inhibitor, chronically infected cells
Protocol: To assess the potential effects of the inhibitory compounds on post-integration events such as transcription, translation, and luciferase enzyme stability and activity, Ghost-R5 cells stably infected several weeks earlier with the same virus preparation were incubated with inhibitory compound in 96 well dishes and luciferase activity was monitored 48 hours later by the addition of 100 μL of Bright-Glo reagent to each well, as described above.

Tn5 transposase = target: T1, Tn5 transposase (Escherichia coli, UniProt Q46731, E54K/L372P/M56A); type: binding
T1 construct: made in house
Protocol: For FP analysis, 60 μL reactions were analyzed using the FP protocol on a Wallac Victor V plate reader and a 7% native polyacrylamide gel was used in gel shift assays. For compound screening and subsequent analysis, 1 μL of either DMSO or test compound (final concentration 80 KIM) was added to the synapsis reactions. Compound screening was carried out using a Beckman Coulter Biomek FX in a 384 well format. Compounds identified as hits were rescreened using gel shift assays under synapsis conditions with a 120 μM compound concentration. IC50 values were obtained by fitting inhibitor titration data (0, 0.01, 0.05, 0.1, 0.5, 2.5, 10, 20, 35, 50, 100, 200, 400, 800 μM) to an exponential decay.

HIV-1 integrase = HIV-1 integrase (Human immunodeficiency virus type 1 group M subtype B, UniProt P04585); assay: HIV-1 integrase assay (3' strand processing, PAGE); type: biochemical; set-up: made in house
Protocol: HIV-1 integrase assay: HIV-1 integrase activity was measured as described in Daniel, R. et al., AIDS Res Hum Retroviruses 20:135-44, 2004 (incorporated by reference in its entirety), except that 1.0 μL of either DMSO or inhibitor were added to the reactions. Briefly, HIV-1 integrase (1 μM, final concentration) was pre-incubated with various concentrations of inhibitor at 30° C. for 30 min. A 21-base pair ^32P labeled substrate (1×10^6 dpm), representing the U5 end of the viral genome, and MnCl2 (10 mM, final concentration) were subsequently added to the reaction. The reaction proceeded for 15 min. at 37° C. The reactions were subsequently quenched using EDTA (10 mM, final concentration), and the products separated on a 20% denaturing polyacrylamide gel.

HIV-1 = test system: HIV-1
Protocol: HIV-1 transduction assay and inhibitory screen: 10,000 Ghost-R5 cells per well were plated in a 384 well plate in 49 μL media. 18 hours after plating, 1 μL of inhibitory compound, dissolved in DMSO, was added and gently mixed into solution. Following a 1 hour 37° C. incubation, HIV-1 virions were added in a final infectious volume of 100 μL. 44-48 hours after infection, 87 μL of media was removed from each well, and 13 μL/well of Bright-Glo luciferase detection reagent (Promega) was added. After a 2 minute incubation, the plates were read on a multiwell plate luminometer.
In parallel, cells infected with virus and compound were assayed for luciferase expression by the addition of […] of Bright-Glo reagent, as described above. In this way, effect of the inhibitory compounds on luciferase expression brought about by successful transduction was measured in the constant presence of the compounds.

[3] = test system: restriction enzyme BsmA I; assay: Inhibition of the restriction enzyme BsmA I (compound specificity); type: biochemical; details: 120 μM compound
Protocol: Inhibition of the restriction enzyme BsmA I was analyzed to determine compound specificity. Reactions were carried out in 2×NEB Buffer 3 with 160 nM dsDNA, 10 units of BsmA I (New England Biolabs), and 120 μM lead compound. Reactions were incubated at 55° C. for one hour followed by a 20 minute 80° C. heat inactivation step prior to gel electrophoresis. Samples were loaded onto a 9% native polyacrylamide gel and run at 300V for 2.5 hours. Gels were subsequently imaged and quantitated as described for the synapsis assays.

Ghost-R5 cells = assay: Cytotoxicity assay (Cell Titer Glo); type: cell-based
Protocol: Cytotoxicity assay: Cytotoxicity assays were performed exactly as the infection assay described above, except media without virus was added following compound addition, and Cell Titer Glo (Promega) viability reagent was added in place of Bright Glo.

Structure (SMILES) | effect on reverse transcription (viral DNA synthesis) [1] | effect on luciferase expression from proviral DNA [2] | inhibition of transposase assembly (in words) (Tn5 transposase) | inhibition of integrase in vitro (in words) (HIV-1 integrase) | inhibition of HIV-1 infection in cells (in words) (HIV-1) | inhibition of BsmA I activity [3] | effect on gross cell viability (Ghost-R5 cells; 75 μM inhibitor) | LD50 relative to ED50 (Ghost-R5 cells; Ghost-R5 cells, cytotoxicity vs transduction)
COc1ccc(N2C(=O)C(O)=C(C(=O)/C=C/c3ccccc3)C2c2cccc([N+](=O)[O-])c2)cc1 (stereo not drawn) [10-B] | either uninhibited, or only inhibited to a small extent; also recorded: no significant inhibitory effect | no significant inhibitory effect | inhibit | inhibit | inhibit | – | – | –
O=C(/C=C/c1ccccc1)C1=C(O)C(=O)N(c2cccc(C(F)(F)F)c2)C1c1ccc([N+](=O)[O-])cc1 (stereo not drawn) [compound 10-F] | either uninhibited, or only inhibited to a small extent; also recorded: no significant inhibitory effect | no significant inhibitory effect | inhibit | inhibit | inhibit | partially inhibits | – | –
O=C(/C=C/c1ccccc1)C1=C(O)C(=O)N(c2ccccc2)C1c1cccc([N+](=O)[O-])c1 (stereo not drawn) [compound 10] | either uninhibited, or only inhibited to a small extent; also recorded: no significant inhibitory effect | no significant inhibitory effect | inhibit | inhibit | inhibit | – | no significant inhibitory effect | at least 2 fold

Source: patent US20090098548A1, “MODULATORS OF ENZYMATIC NUCLEIC ACID ELEMENTS MOBILIZATION” (priority 2004, published 2009)
